Experimental data: the supplement of paper PMC9005190

How the values were obtained:
PAR1 [1] = target: T1, PAR1 (UniProt P25116); test: pEC50 of agonist-induced pathway activation (ebBRET)
T1 sequence (whole entry): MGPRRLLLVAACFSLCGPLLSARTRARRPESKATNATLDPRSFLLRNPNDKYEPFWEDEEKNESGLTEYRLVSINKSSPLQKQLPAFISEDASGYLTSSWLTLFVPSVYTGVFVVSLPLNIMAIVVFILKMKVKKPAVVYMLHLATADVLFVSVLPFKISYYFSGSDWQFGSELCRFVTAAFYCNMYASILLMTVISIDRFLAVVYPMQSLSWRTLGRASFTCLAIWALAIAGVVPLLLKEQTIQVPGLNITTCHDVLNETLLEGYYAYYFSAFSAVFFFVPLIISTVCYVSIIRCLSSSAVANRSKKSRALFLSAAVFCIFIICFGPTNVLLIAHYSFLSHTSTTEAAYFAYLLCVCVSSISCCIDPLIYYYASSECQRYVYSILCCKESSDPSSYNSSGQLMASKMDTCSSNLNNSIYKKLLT

PAR1 [2] = target: T1, PAR1; test: Emax (maximal agonist-induced change in ebBRET relative to vehicle) (% of vehicle response (amplitude of change)); higher = larger response (for Gs, larger decrease in membrane ebBRET, i.e. stronger Gs activation)
P2Y2 [3] = target: P2Y2 (UniProt P41231); test: pEC50 of agonist-induced pathway activation (ebBRET)
Chain of P2Y2 (P41231 whole entry): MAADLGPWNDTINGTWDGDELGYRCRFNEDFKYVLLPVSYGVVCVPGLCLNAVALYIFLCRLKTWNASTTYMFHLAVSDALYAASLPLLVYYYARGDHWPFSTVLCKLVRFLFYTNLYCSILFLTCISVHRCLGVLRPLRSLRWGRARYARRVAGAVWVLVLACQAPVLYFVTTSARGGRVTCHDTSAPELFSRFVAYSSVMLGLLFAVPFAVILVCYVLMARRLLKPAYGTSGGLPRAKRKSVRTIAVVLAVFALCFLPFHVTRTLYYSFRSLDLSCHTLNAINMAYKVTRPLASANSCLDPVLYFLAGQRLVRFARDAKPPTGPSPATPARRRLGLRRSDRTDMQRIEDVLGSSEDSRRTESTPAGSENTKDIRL

P2Y2 [4] = target: P2Y2 (UniProt P41231); test: Emax (maximal agonist-induced change in ebBRET relative to vehicle) (% of vehicle response (amplitude of change)); higher = larger response (for Gs, larger decrease in membrane ebBRET, i.e. stronger Gs activation)
CRFR2 [5] = target: T2, CRFR2 (UniProt Q13324); test: pEC50 of agonist-induced pathway activation (ebBRET)
T2 sequence (whole entry): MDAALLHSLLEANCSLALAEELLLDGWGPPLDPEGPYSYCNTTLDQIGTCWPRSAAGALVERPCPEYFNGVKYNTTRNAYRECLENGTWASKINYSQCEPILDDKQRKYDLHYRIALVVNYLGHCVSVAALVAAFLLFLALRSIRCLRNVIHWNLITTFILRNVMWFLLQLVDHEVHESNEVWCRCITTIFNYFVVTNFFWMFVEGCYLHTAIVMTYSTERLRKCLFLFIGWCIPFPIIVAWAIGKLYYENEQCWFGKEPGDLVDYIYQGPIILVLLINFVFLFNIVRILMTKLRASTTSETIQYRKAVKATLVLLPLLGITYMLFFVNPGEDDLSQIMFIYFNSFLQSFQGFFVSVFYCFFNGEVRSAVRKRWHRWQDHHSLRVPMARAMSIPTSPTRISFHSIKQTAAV

CRFR2 [6] = target: T2, CRFR2; test: Emax (maximal agonist-induced change in ebBRET relative to vehicle) (% of vehicle response (amplitude of change)); higher = larger response (for Gs, larger decrease in membrane ebBRET, i.e. stronger Gs activation)
GPR39 [7] = target: T3, GPR39 (UniProt O43194); test: pEC50 of agonist-induced pathway activation (ebBRET)
T3 sequence (whole entry): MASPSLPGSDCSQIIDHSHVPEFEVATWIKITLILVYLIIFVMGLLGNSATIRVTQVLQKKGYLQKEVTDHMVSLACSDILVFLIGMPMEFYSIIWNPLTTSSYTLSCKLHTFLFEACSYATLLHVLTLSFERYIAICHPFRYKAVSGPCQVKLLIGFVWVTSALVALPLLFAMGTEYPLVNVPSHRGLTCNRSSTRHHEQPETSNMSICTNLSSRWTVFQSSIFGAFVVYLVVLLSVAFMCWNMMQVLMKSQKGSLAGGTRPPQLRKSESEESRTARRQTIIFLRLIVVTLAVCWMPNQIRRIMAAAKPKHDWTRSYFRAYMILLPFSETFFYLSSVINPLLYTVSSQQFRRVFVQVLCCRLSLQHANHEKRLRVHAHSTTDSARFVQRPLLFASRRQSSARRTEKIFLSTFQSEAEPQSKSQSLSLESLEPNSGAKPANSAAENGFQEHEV

GPR39 [8] = target: T3, GPR39; test: Emax (maximal agonist-induced change in ebBRET relative to vehicle) (% of vehicle response (amplitude of change)); higher = larger response (for Gs, larger decrease in membrane ebBRET, i.e. stronger Gs activation)
FFA4 [9] = test: pEC50 of agonist-induced pathway activation (ebBRET)
FFA4 [10] = test: Emax (maximal agonist-induced change in ebBRET relative to vehicle) (% of vehicle response (amplitude of change)); higher = larger response (for Gs, larger decrease in membrane ebBRET, i.e. stronger Gs activation)

CC(C)C[C@H](NC(=O)[C@H](CC(C)C)NC(=O)[C@H](Cc1ccccc1)NC(=O)[C@@H](N)[C@@H](C)O)C(=O)N[C@@H](CCCN=C(N)N)C(N)=O [TFLLR-NH2]
Settings | Emax, PAR1 [2] | pEC50, PAR1 [1]
pathway (G protein / arrestin sensor): G11 | 382 | 6.55
pathway (G protein / arrestin sensor): G13 | 193 | 7.11
pathway (G protein / arrestin sensor): G14 | 405 | 5.74
pathway (G protein / arrestin sensor): G15 | 332 | 6.22
pathway (G protein / arrestin sensor): Gi1 | 574 | 4
pathway (G protein / arrestin sensor): Gi2 | 177 | 5.04
pathway (G protein / arrestin sensor): GoA | 73 | 5.89
pathway (G protein / arrestin sensor): GoB | 221 | 6
pathway (G protein / arrestin sensor): Gq | 238 | 6.72
pathway (G protein / arrestin sensor): Gz | 144 | 6.41
pathway (G protein / arrestin sensor): βarr1/GRK2 | 446 | 5.08
pathway (G protein / arrestin sensor): βarr2 | 439 | 5.12
pathway (G protein / arrestin sensor): βarr2/GRK2 | 470 | 5.18

O=c1ccn([C@@H]2O[C@H](COP(=O)(O)OP(=O)(O)OP(=O)(O)O)[C@@H](O)[C@H]2O)c(=O)[nH]1 [UTP]
Settings | Emax, P2Y2 [4] | pEC50, P2Y2 [3]
pathway (G protein / arrestin sensor): G11 | 26.1 | 6.43
pathway (G protein / arrestin sensor): G14 | 26.7 | 6.29
pathway (G protein / arrestin sensor): G15 | 198 | 6.08
pathway (G protein / arrestin sensor): Gi1 | 59.2 | 6.29
pathway (G protein / arrestin sensor): Gi2 | 25.9 | 6.54
pathway (G protein / arrestin sensor): GoA | 85.7 | 5.94
pathway (G protein / arrestin sensor): GoB | 54.5 | 6.37
pathway (G protein / arrestin sensor): Gq | 29.2 | 6.4
pathway (G protein / arrestin sensor): Gz | 91.8 | 6.04
pathway (G protein / arrestin sensor): βarr1/GRK2 | 185 | 5.24
pathway (G protein / arrestin sensor): βarr2 | 346 | 4.99
pathway (G protein / arrestin sensor): βarr2/GRK2 | 94.7 | 5.36

CC[C@H](C)[C@H](N)C(=O)N[C@H](C(=O)N[C@@H](CC(C)C)C(=O)N[C@@H](CO)C(=O)N[C@@H](CC(C)C)C(=O)N[C@@H](CC(=O)O)C(=O)N[C@H](C(=O)N1CCC[C@H]1C(=O)N[C@H](C(=O)NCC(=O)N[C@@H](CC(C)C)C(=O)N[C@@H](CC(C)C)C(=O)N[C@@H](CCC(N)=O)C(=O)N[C@H](C(=O)N[C@@H](CC(C)C)C(=O)N[C@@H](CC(C)C)C(=O)N[C@@H](CCC(=O)O)C(=O)N[C@@H](CCC(N)=O)C(=O)N[C@@H](C)C(=O)N[C@@H](CCCNC(=N)N)C(=O)N[C@@H](C)C(=O)N[C@@H](CCCNC(=N)N)C(=O)N[C@@H](C)C(=O)N[C@@H](C)C(=O)N[C@@H](CCCNC(=N)N)C(=O)N[C@@H](CCC(=O)O)C(=O)N[C@@H](CCC(N)=O)C(=O)N[C@@H](C)C(=O)N[C@H](C(=O)N[C@H](C(=O)N[C@@H](CC(N)=O)C(=O)N[C@@H](C)C(=O)N[C@@H](CCCNC(=N)N)C(=O)N[C@H](C(=O)N[C@@H](CC(C)C)C(=O)N[C@@H](C)C(=O)N[C@@H](CCCNC(=N)N)C(=O)N[C@H](C(=O)NCC(=O)N[C@@H](Cc1cnc[nH]1)C(=O)N[C@@H](CS)C(N)=O)C(C)C)[C@@H](C)CC)[C@@H](C)O)[C@@H](C)O)[C@@H](C)CC)[C@@H](C)CC)C(C)C)C(C)C [Urocortin II]
Settings | Emax, CRFR2 [6] | pEC50, CRFR2 [5]
pathway (G protein / arrestin sensor): G15 | 725 | 8.77
pathway (G protein / arrestin sensor): Gi1 | 442 | 8.2
pathway (G protein / arrestin sensor): Gi2 | 206 | 8.28
pathway (G protein / arrestin sensor): GoA | 159 | 8.33
pathway (G protein / arrestin sensor): GoB | 263 | 8.37
pathway (G protein / arrestin sensor): Gs | 57.3 | 10.3
pathway (G protein / arrestin sensor): Gz | 72.8 | 8.2
pathway (G protein / arrestin sensor): βarr1/GRK2 | 1420 | 8.08
pathway (G protein / arrestin sensor): βarr2 | 1090 | 7.98
pathway (G protein / arrestin sensor): βarr2/GRK2 | 1440 | 8.16

[Cl][Zn][Cl] [Zn2+]
Settings | Emax, GPR39 [8] | pEC50, GPR39 [7]
pathway (G protein / arrestin sensor): G11 | 136 | 4.21
pathway (G protein / arrestin sensor): G13 | 120 | 5.39
pathway (G protein / arrestin sensor): G14 | 210 | 4.25
pathway (G protein / arrestin sensor): G15 | 37.6 | 4.38
pathway (G protein / arrestin sensor): Gi1 | 254 | 4.1
pathway (G protein / arrestin sensor): Gi2 | 80.9 | 4.19
pathway (G protein / arrestin sensor): GoA | 137 | 4.16
pathway (G protein / arrestin sensor): GoB | 197 | 4.25
pathway (G protein / arrestin sensor): Gq | 113 | 4.48
pathway (G protein / arrestin sensor): βarr2 | 61.7 | 4.03
pathway (G protein / arrestin sensor): βarr2/GRK2 | 41.4 | 4.02

CC/C=C\C/C=C\C/C=C\CCCCCCCC(=O)O [α-linolenic acid]
Settings | Emax, FFA4 [10] | pEC50, FFA4 [9]
pathway (G protein / arrestin sensor): G11 | 288 | 5.08
pathway (G protein / arrestin sensor): G13 | 120 | 4.8
pathway (G protein / arrestin sensor): G14 | 297 | 5.5
pathway (G protein / arrestin sensor): G15 | 476 | 5.53
pathway (G protein / arrestin sensor): Gi1 | 35 | 6.12
pathway (G protein / arrestin sensor): Gi2 | 23.3 | 6.31
pathway (G protein / arrestin sensor): GoA | 64 | 5.6
pathway (G protein / arrestin sensor): GoB | 30.2 | 6.27
pathway (G protein / arrestin sensor): Gq | 198 | 5.1
pathway (G protein / arrestin sensor): βarr1/GRK2 | 1090 | 4.7
pathway (G protein / arrestin sensor): βarr2 | 993 | 4.94
pathway (G protein / arrestin sensor): βarr2/GRK2 | 999 | 4.87
